Measurements published in publication PMC6934975, “Natural Alpha-Glucosidase Inhibitors Rapid Fishing from Cyperus Rotundus Using Immobilized Enzyme Affinity Screening Combined with UHPLC-QTOF MS” (Iranian Journal of Pharmaceutical Research : IJPR, 2019).
Read-outs that look alike come from different tables or passages of the source.

What was measured:
[1] = biological target: T1, α-Glucosidase (E.C. 3.2.1.20) from Saccharomyces cerevisiae (Saccharomyces cerevisiae, UniProt P53341); experiment: Kinetic analysis of AGH inhibition (Lineweaver-Burk plot); assay type: biochemical
T1 construct: purchased Sigma-Aldrich
Method: (§1) where AS, ASB, AC and ACB are the absorbance of sample, sample blank, control and control blank, respectively. The measurement was performed in triplicates. For kinetic analysis of AGH inhibition, a certain concentration of 0.6 U/mL AGH and different contents of sample compounds were incubated with a series of concentrations of substrate. The inhibitory kinetics of the investigated compounds was analyzed using the Lineweaver-Burk plot, double-reciprocal plot of the substrate concentration and velocity.

[2] = biological target: T2, immobilized α-glucosidase (Saccharomyces cerevisiae, UniProt P53341); experiment: AGH inhibitors screening by immobilized AGH affinity fishing with UHPLC-QTOF-MS; assay type: binding; details: C. rotundus extract; parallel control with blank sepharose supports
T2 construct: purchased Sigma-Aldrich
Method: a-Glucosidase (0.20 mg) was dissolved in coupling buffer (0.1 M NaHCO3 and 0.5 M NaCl at pH 8.3) at a concentration of 2.0 mg protein/mL. The protein solution was mixed with CNBr-activated Sepharose^TM 4B gel at room temperature in a ratio of […] protein solution to 5 mg Sepharose^TM powder, which would swell to about […] of wet gel. The gel slurry was rotated at room temperature for 1 h to ensure the enzyme bound to the beads. After protein coupling, the resident reactive sites on the gel were blocked by reacting with 0.01 M Tris-HCl buffer at pH 8.0 for 1 h at room temperature. […] Control supports were prepared in the same manner but with no AGH being added during the immobilization step.
200 mg ground C. rotundus powder was extracted in 20 mL of 80% aqueous methanol by ultrasonic extraction for 30 min. The extract was filtered and freeze-dried, then redissolved in 10 mL affinity buffer (67 mM KH2PO4 (containing 5% methanol) at pH 6.8) and filtered through a 0.45 μm membrane as the tested extract sample.
C. rotundus extracts (400 mL) was mixed with […] immobilized AGH gel and gently stirred at 37 °C for 20 min. After incubation with the extracts, the gel were washed with 400 mL affinity buffer (67 mM KH2PO4 (containing 5% methanol) at pH 6.8) four times to remove any unbound components and then treated with […] desorbed solution (50% methanol aqueous solution at pH 3.3) to release the captured potential inhibitors of AGH. The released components were collected and concentrated to 10 mL under N2 atmosphere at 40 °C, then applied to UPLC-QTOF-MS for peak identification. Elution from the control supports was collected and analyzed in the same manner.
UHPLC-MS was performed on an Agilent 1290 Infinity LC-6520 Accurate-Mass QTOF-MS (Agilent Corporation, CA, USA). Analytes eluted from the AGH coupling supports and control supports were separated on a poroshell 120 EC-C18 column (3.0 × 50 mm, 2.7 µm , Agilent Corporation, MA, USA). The solvent system consisted of solvent A […] and solvent B (0.5% formic acid in water, v/v). The solvent A content of the mobile phase was gradient increased from 5% to 100% linearly in 20 min.
The flow rate was set at 0.4 mL/min. Mass analysis was performed in negative ESI ion mode. The operating parameters were as follows: drying gas (N2) flow rate, 8 L/min; drying gas temperature, 325 °C; nebulizer, 30 psig; capillary, 3500 V; skimmer, 65 V; fragmentor voltage, 100 V. The mass range was set at m/z 100–2000. The system was operated under Agilent MassHunter workstation acquisition software, version B.02.01 (Agilent Corporation, MA, USA).
The extract of C. rotundus was used as the real biological sample to carry out the affinity screening procedure, just as shown in Scheme 1. Firstly, α-glucosidase was immobilized on CNBr-activated sepharose beads, while blank supports were set as control. Secondly, immobilized α-glucosidase was incubated with 300 µL of C.
rotundus extracts to launch the affinity capture procedure. The highly-affinity components in C. rotundus could be specifically captured by the enzyme and fished out from the complex matrix. Thirdly, to characterize the captured compounds, the binders were released from immobilized α-glucosidase and subsequently separated and analyzed by UHPLC-QTOF MS. It was worth mentioning that not all the molecules retained on immobilized enzyme were of highly-affinity. Some of them might be non-specifically absorbed on the blank sepharose support. To eliminate this false positive, a parallel control was carried out throughout the whole screening procedure. By subtracting the signal of false positive, the highly-affinity ingredients could be recognized correctly, and these ingredients might be potent natural AGHI in C. rotundus.

[3] = biological target: T1, α-Glucosidase (E.C. 3.2.1.20) from Saccharomyces cerevisiae; experiment: α-Glucosidase inhibitory activity assay in vitro (PNPG substrate, absorbance at 405 nm); assay type: biochemical
Excerpt: Agilent 1290 Infinity LC-6520 Accurate-Mass QTOF-MS (Agilent Technologies, PaloAlto, CA, USA); Bruker DRX-400 (400MHz for ^1H and 100MHz for ^13C) spectrometer (Bruker, Rheinstetten, Germany); α-Glucosidase (E.C. 3.2.1.20) from Saccharomyces cerevisiae, p-nitrophenyl a-D-glucopyranoside (PNPG) and glutathione (GSH) were purchased from Sigma-Aldrich (St Louis, MO, USA). CNBr-activated Sepharose^TM 4B was purchased from Phamacia Biotech AB (Uppsala, Sweden). Distilled water was purified by a Milli-Q water purification apparatus (Millipore, Bedford, MA). All other reagents were of analytical grade.
Each of the dried ground powder (3 g) was extracted in 30 mL of 80% aqueous methanol by ultrasonic extraction for 60 min at room temperature. After centrifugation at 5000 rpm for 5 min, the combined extract was evaporated under reduced pressure to dryness. To each herb extract, DMSO was added to get 5 mg/mL solution, respectively.
The α-glucosidase inhibitory activity was determined spectrophotometrically on 96-well microplate reader. In brief, to a total of 310 μL of reaction mixture containing 265 μL of 67 mM phosphate buffer (pH 6.8), 10 μL of 3 mM glutathione, 25 μL of 10 mM p-nitrophenyl-α-D-glucopyranoside and 10 μL of investigated compounds in the wells was added 10 μL of 0.3 U/mL α-glucosidase and mixed. All the reagents used in this assay were dissolved in the same phosphate buffer (67 mM, pH 6.8). After incubation for 10 min at 37 °C, the reaction was stopped by adding […] of 0.1 M Na2CO3 solution. Then the absorbance of sample (AS) at 405 nm was recorded (SunriseTM microplate absorbance reader, Tecan, Austria). The control was the same mixture except for the investigated sample replaced by the phosphate buffer. The sample blank and control blank were the same mixtures as sample and control, respectively, except α-glucosidase was instead with phosphate buffer, respectively.
The α-glucosidase inhibition activity (%) of test sample could be calculated as
Inhibition activity (%) = […]
as §1

α-glucosidase = tested on: α-glucosidase; design: method as in PMID 24044731; details: cited from earlier work

T2 sequence (P53341 whole entry): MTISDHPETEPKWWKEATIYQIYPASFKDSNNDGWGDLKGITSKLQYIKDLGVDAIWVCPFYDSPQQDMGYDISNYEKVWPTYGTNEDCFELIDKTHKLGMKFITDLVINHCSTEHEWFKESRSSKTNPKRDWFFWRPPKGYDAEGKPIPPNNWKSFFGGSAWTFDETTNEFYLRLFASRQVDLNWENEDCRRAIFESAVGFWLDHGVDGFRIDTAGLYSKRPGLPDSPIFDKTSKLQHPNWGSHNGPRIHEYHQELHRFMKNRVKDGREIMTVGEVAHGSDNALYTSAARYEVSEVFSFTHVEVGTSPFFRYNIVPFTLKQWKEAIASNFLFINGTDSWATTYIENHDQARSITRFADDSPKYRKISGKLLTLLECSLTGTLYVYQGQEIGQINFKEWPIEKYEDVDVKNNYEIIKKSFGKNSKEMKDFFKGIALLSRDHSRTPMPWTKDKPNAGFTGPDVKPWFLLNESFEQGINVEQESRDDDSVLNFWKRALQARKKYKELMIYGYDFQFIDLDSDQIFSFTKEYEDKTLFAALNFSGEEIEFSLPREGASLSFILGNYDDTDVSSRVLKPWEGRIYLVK
T1 sequence (P53341 whole entry): as above

| SMILES | alpha-glucosidase inhibitory kinetic mode ([1]; Lineweaver-Burk plots) | Ki [1] [µM] | Affinity capture result on immobilized α-glucosidase after subtracting the blank support signal [2] | IC50 [3] [µM] | α-glucosidase inhibitory activity in words [3] | α-glucosidase inhibitors in C. rotundus (reported) (α-glucosidase) | Ki ([1]; Lineweaver-Burk plots, Table 2, read-out: alpha-glucosidase inhibitory Ki) [µM] | IC50 ([3]; Table 2, read-out: alpha-glucosidase inhibitory IC50) [µM] |
| --- | --- | --- | --- | --- | --- | --- | --- | --- |
| C[C@H]1O[C@H](O[C@H]2[C@H](O)[C@@H](O)[C@@H](O[C@H]3[C@H](O)[C@@H](O)C(O)O[C@@H]3CO)O[C@@H]2CO)[C@H](O)[C@@H](O)[C@@H]1N[C@H]1C=C(CO)[C@@H](O)[C@H](O)[C@H]1O (stereo partly drawn) [Acarbose (reference), Acarbose, reference compound] | competitive | – | – | – | – | – | – | – |
| Oc1ccc(/C=C/c2c3c(cc4c2[C@H](c2cc(O)cc(O)c2)[C@@H](c2ccc(O)c(O)c2)O4)O[C@H](c2ccc(O)c(O)c2)[C@H]3c2cc(O)cc(O)c2)cc1 [Cyperusphenol A (1), (E)-cyperusphenol A] | Noncompetitive | 11.2 | highly-affinity binders | 1.43 ± 0.11 | potent natural AGHIs | – | – | – |
| Oc1cc2c3c(c1)C1c4c(cc(O)cc4C4c5c(cc(O)cc5C3C(c3ccc(O)c(O)c3)O2)OC4c2ccc(O)c(O)c2)OC1c1ccc(O)c(O)c1 (stereo not drawn) [Cyperusphenol D (3), Cyperusphenol D] | Noncompetitive | 8.63 | highly-affinity binders | 1.18 ± 0.11 | potent natural AGHIs | – | – | – |
| Oc1ccc(/C=C/c2c3c(cc4c2[C@@H](c2cc(O)cc(O)c2)[C@H](c2ccc(O)c(O)c2)O4)O[C@H](c2ccc(O)c(O)c2)[C@H]3c2cc(O)cc(O)c2)cc1 [Mesocyperusphenol A (2), mesocyperusphenol A] | Noncompetitive | 10.7 | highly-affinity binders | 1.44 ± 0.17 | potent natural AGHIs | – | – | – |
| Oc1ccc(/C=C/c2cc(O)cc3c2C(c2cc(O)cc(O)c2)C(c2ccc(O)c(O)c2)O3)cc1 (stereo not drawn) [Scirpusins A (5), Scirpusins A] | Noncompetitive | – | highly-affinity binders | – | – | natural α-glucosidase inhibitors | 136 | 21.4 ± 1.4 |
| Oc1cc(O)cc(C2c3c(/C=C/c4ccc(O)c(O)c4)cc(O)cc3OC2c2ccc(O)c(O)c2)c1 (stereo not drawn) [Scirpusins B (4), Scirpusins B] | Noncompetitive | 95.4 | highly-affinity binders | 13.3 ± 1.66 | – | natural α-glucosidase inhibitors | – | – |
| CC1=C2C(O)C3CC(O)C(C)C2(CC1O)C3(C)C (stereo not drawn) [sugetriol] | – | – | absorbed only on the support matrix | – | – | – | – | – |
